In patent US20150328292A1, “CASPASE POLYPEPTIDES HAVING MODIFIED ACTIVITY AND USES THEREOF” (BELLICUM PHARMACEUTICALS, INC., priority 2014, published 2015):
Several values for one entry are separate records, joined by “and”; a condition that tells them apart may be missing. Equal entries are not always repeated. Entries after “also recorded” stand apart in the source; their conditions may differ. Where two headings read alike, the source gives them in different places.

How the values were obtained:
human CD3+CD19+ T cells = experiment: AP1903 dose-dependent elimination in vivo of transduced T cells in NSG mice; parameters: species or system mouse; details: T cells with wild-type iCasp9, i.p., 24 hours
Description: T cells were transduced with SFG-iCasp9-2A-ΔCD19 retrovirus and injected i.v. into immune deficient mice (NSG). […] After an additional 24 hours, mice were sacrificed and lymphocytes from the spleen (FIG. 61A) and peripheral blood (FIG. 61B) were isolated and analyzed by flow cytometry for the frequency of human CD3+CD19+ T cells.
T cells were transduced with SFG-iCasp9-D330E-2A-ΔCD19 retrovirus and injected i.v. into immune deficient mice (NSG). […] After an additional 24 hours, mice were sacrificed and lymphocytes from the spleen (A) were isolated and analyzed by flow cytometry for the frequency of human CD3+CD19+ T cells.

[1] = target: chimeric caspase-9 polypeptide (Homo sapiens, UniProt P55211+P62942, F37V); experiment: AP1903-triggered apoptosis/signaling of cells expressing chimeric caspase-9 polypeptide; format: cell-based
CD3+ΔCD19+ cells = experiment: CASPALLO phase I clinical trial, AP1903 in patients with GvHD after iCasp9 T cells; format: in vivo, human
[2] = cited from earlier work; for safety and tolerability: healthy volunteers, 0.01-1.0 mg/kg
[3] = system: iCasp9-ΔCD19-transduced MSCs; experiment: In vivo killing of iCasp9-transduced MSCs in SCID mice (luminescence, qPCR); parameters: species or system mouse
[4] = system: F-Casp9M.I.GFPhigh-transduced T cells; experiment: annexin-V/7-AAD staining of CID-treated transduced CTLs; format: cell-based, human; details: GFPhigh-selected, overnight 10 nM CID
Description: CID (AP20187; ARIAD Pharmaceuticals) at indicated concentrations was added to transfected 293T cells or transduced CTLs. Adherent and nonadherent cells were harvested and washed with annexin binding buffer (BD Pharmingen, San Jose, Calif.). Cells were stained with annexin-V and 7-amino-actinomycin D (7-AAD) for 15 minutes according to the manufacturer's instructions (BD Pharmingen). Within 1 hour after staining, cells were analyzed by flow cytometry using CellQuest software (Becton Dickinson).

[5] = system: iCasp9M-transduced EBV-CTLs; experiment: Loss of GFP-expressing iCasp9M-transduced EBV-CTLs after CID (flow cytometry); format: cell-based, human
[6] = system: differentiated iCasp9-positive MSCs; experiment: Apoptosis of differentiated iCasp9-transduced MSCs after CID (TUNEL, cell density); format: cell-based, human; details: adipocytic differentiation, 50 nM CID, after 24 hours (from 584)
Description: Differentiated MSCs. Transduced MSCs were differentiated as presented above. At the end of the differentiation period, CID was added to the differentiation media at 50 nM. Cells were stained appropriately for the tissue being studied, as presented above, and a contrast stain (methylene azur or methylene blue) was used to evaluate the nuclear and cytoplasmic morphology. In parallel, tissues were processed for terminal deoxynucleotidyl-transferase dUTP nick end labeling (TUNEL) assay as per manufacturer instructions (In Situ Cell Death Detection Kit, Roche Diagnostics, Mannheim, Germany). For each time point, four random fields were photographed at a final magnification of 40× and the images were analyzed with ImageJ software version 1.43o (NIH, Bethesda, Md.). Cell density was calculated as the number of nuclei (DAPI positivity) per unit of surface area (in mm^2). The percentage of apoptotic cells was determined as the ratio of the number of nuclei with positive TUNEL signal (FITC positivity) to the total number of nuclei. Controls were maintained in culture without CID.

iCasp9-transduced MSCs = experiment: Apoptosis of undifferentiated iCasp9-transduced MSCs after CID (annexin V/7-AAD FACS); format: cell-based, human
Description: Undifferentiated MSCs. The chemical inducer of dimerization (CID) (AP20187; ARIAD Pharmaceuticals, Cambridge, Mass.) was added at 50 nM to iCasp9-transduced MSCs cultures in complete medium. Apoptosis was evaluated 24 hours later by FACS analysis, after cell harvest and staining with annexin V-PE and 7-AAD in annexin V binding buffer (BD Biosciences, San Diego, Calif.). Control iCasp9-transduced MSCs were maintained in culture without exposure to CID.

[7] = system: iCasp9M.IRES.GFPhigh-transduced CTLs; experiment: SCID mouse-human xenograft model, elimination of transduced CTLs by CID; format: in vivo; details: single dose of CID (50 μg AP20187 i.p.), vs carrier
Description: Non-obese diabetic severe combined immunodeficient (NOD/SCID) mice, 6 to 8 weeks of age, were irradiated (250 rad) and injected subcutaneously in the right flank with 10×10^6 to 15×10^6 LCLs resuspended in Matrigel (BD Bioscience). Two weeks later mice bearing tumors that were approximately 0.5 cm in diameter were injected into the tail vein with a 1:1 mixture of nontransduced and iCasp9.I.GFPhigh-transduced EBV CTLs (total 15×10^6). At 4 to 6 hours prior and 3 days after CTL infusion, mice were injected intraperitoneally with recombinant hIL-2 (2000 U; Proleukin; Chiron). On day 4, the mice were randomly segregated in 2 groups: 1 group received CID (50 μg AP20187, intraperitoneally) and 1 group received carrier only (16.7% propanediol, 22.5% PEG400, and 1.25% Tween 80, intraperitoneally). […] By FACS analysis, the number of GFP+ cells within the gated CD3^+ population was evaluated. […]
The function of iCasp9M in vivo is graphically illustrated in FIG. 7. […] On day 3 after CTL administration, mice received either CID (50 μg AP20187; (black diamonds, n=6) or carrier only (black squares, n=5) and on day 6 the presence of human CD3+/GFP+ T cells in the tumors was analyzed. Human CD3+ T cells isolated from the tumors of a control group of mice that received only nontransduced CTLs (15×10^6 CTLs; n=4) were used as a negative control for the analysis of CD3+/GFP+ T cells within the tumors.

[8] = system: gene-modified allodepleted cells; experiment: Induction of apoptosis with AP20187 in gene-modified allodepleted cells (annexin V/7-AAD); format: cell-based, human
Description: Suicide gene functionality was assessed by adding a small molecule synthetic homodimerizer, AP20187 (Ariad Pharmaceuticals; Cambridge, Mass.), at 10 nM final concentration the day following CD19 immunomagnetic selection. Cells were stained with annexin V and 7-aminoactinomycin (7-AAD)(BD Pharmingen) at 24 hours and analyzed by flow cytometry. Cells negative for both annexin V and 7-AAD were considered viable, cells that were annexin V positive were apoptotic, and cells that were both annexin V and 7-AAD positive were necrotic. The percentage killing induced by dimerization was corrected for baseline viability as follows: Percentage killing=100%−(% Viability in AP20187-treated cells÷ % Viability in non-treated cells).
Cells were maintained in T cell medium containing 50 U/ml IL-2 until 22 days after transduction. A portion of cells was reactivated on 24-well plates coated with […] OKT3 and 1 μg/ml anti-CD28 (Clone CD28.2, BD Pharmingen, San Jose, Calif.) for 48 to 72 hours. CD19 expression and suicide gene function in both reactivated and non-reactivated cells were measured on day 24 or 25 post transduction.
In some experiments, cells also were cultured for 3 weeks post transduction and stimulated with 30G-irradiated allogeneic PBMC at a responder:stimulator ratio of 1:1. After 4 days of co-culture, a portion of cells was treated with 10 nM AP20187. Killing was measured by annexin V/7-AAD staining at 24 hours, and the effect of dimerizer on bystander virus-specific T cells was assessed by pentamer analysis on AP20187-treated and untreated cells.

[9] = 10 nM, 24 hours, day after CD19 selection

Chain of chimeric caspase-9 polypeptide (P62942 2-108 F37V limits assumed): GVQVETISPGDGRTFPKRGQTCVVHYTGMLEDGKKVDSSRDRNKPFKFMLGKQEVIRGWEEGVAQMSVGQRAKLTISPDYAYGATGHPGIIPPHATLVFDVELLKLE
Chain of chimeric caspase-9 polypeptide (P55211 135-416 limits assumed): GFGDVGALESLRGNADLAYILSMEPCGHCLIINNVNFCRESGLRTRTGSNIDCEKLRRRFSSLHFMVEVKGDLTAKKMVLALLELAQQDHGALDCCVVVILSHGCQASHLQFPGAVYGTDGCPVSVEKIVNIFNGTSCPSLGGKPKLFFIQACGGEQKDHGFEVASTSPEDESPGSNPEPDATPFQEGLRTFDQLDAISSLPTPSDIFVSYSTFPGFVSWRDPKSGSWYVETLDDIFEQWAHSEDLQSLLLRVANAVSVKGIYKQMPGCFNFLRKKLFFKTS

## CC[C@H](C(=O)N1CCCC[C@H]1C(=O)O[C@H](CCc1ccc(OC)c(OC)c1)c1cccc(OCC(=O)NCCNC(=O)COc2cccc([C@@H](CCc3ccc(OC)c(OC)c3)OC(=O)[C@@H]3CCCCN3C(=O)[C@@H](CC)c3cc(OC)c(OC)c(OC)c3)c2)c1)c1cc(OC)c(OC)c(OC)c1 (relative stereo) [AP1903, 2-Piperidinecarboxylic acid, 1-[(2S)-1-oxo-2-(3,4,5-trimethoxyphenyl)butyl]-, 1,2-ethanediylbis[imino(2-oxo-2,1-ethanediyl)oxy-3,1-phenylene[(1R)-3-(3,4-dimethoxyphenyl)propylidene]]ester, [2S-[1(R*),2R*[S*[S*[1(R*),2R*]]]]]-(9Cl)]
Human CD3+CD19+ T cells
  AP1903 dose sufficient to eliminate most modified T cells in vivo: 0.5 mg/kg
[1]
  amount of AP1903 needed in vitro for effective signaling of cells: 0.1 to 10 nM
CD3+ΔCD19+ cells; patient 1, post-treatment
  time to normalization of bilirubin concentration: ≤ 24 h
CD3+ΔCD19+ cells; patient 2, post treatment
  time to disappearance of skin rash: ≤ 24 h
CD3+ΔCD19+ cells; patients with grade I/II aGVHD
  time to resolution of skin and liver aGvHD: ≤ 24 h
CD3+ΔCD19+ cells; within 30 minutes of infusion, 0.4 mg/kg
  ablation of CD3+ΔCD19+ cells: > 90%
CD3+ΔCD19+ cells; within 24 hours
  further reduction of CD3+ΔCD19+ cells: further log reduction
[2]; 1 volunteer at 1.0 mg/kg, facial flushing
  adverse event considered possibly related: vasodilatation
[2]; 2 hours post-dose
  plasma level, % of maximal concentration: ~7%
[2]; 10 hours post-dose
  plasma level, % of maximal concentration: ~1%
[2]
  safety and tolerability: proven safe in healthy volunteers; also recorded: safe and well tolerated at all dose levels; also recorded: proven safe at the required dose; also recorded: substantially no significant adverse effects
[2]; listed as API903
  safety and tolerability: No serious adverse events

## CC[C@H](C(=O)N1CCCC[C@H]1C(=O)O[C@H](CCc1ccc(OC)c(OC)c1)c1cccc(OCC(=O)NCC(CNC(=O)COc2cccc([C@@H](CCc3ccc(OC)c(OC)c3)OC(=O)[C@@H]3CCCCN3C(=O)[C@@H](CC)c3cc(OC)c(OC)c(OC)c3)c2)CN(C)C)c1)c1cc(OC)c(OC)c(OC)c1 [AP20187]
[3]; mouse, in vivo
  proportion of surviving iCasp9-positive cells: 0.7%
[3]; two injections of 50 μg of CID 24 hours apart
  killing / depletion of iCasp9-positive MSCs in vivo: > 99%
[4]
  apoptotic (annexin-V+/7-AAD−) phenotype: 64%
[4]; listed as CID
  necrotic (annexinV+/7-AAD+) phenotype: 30% and 32%
[5]; F-Casp9M.I.GFPhigh, day 7
  CID concentration sufficient to obtain the maximal deletion effect: 1 nM
[5]; after CID
  reduction in mean fluorescence intensity of GFP in surviving CTLs: 70%
[5]; unselected CTLs, single 10-nM dose of CID, 5 donors
  GFP+ cells eliminated: 91.3%
[6]
  cell density: < 14 cells/mm2
iCasp9-transduced MSCs; CID 50 nM, 24 hours
  annexin positive non-transduced control MSC (Control/CID): 15%
iCasp9-transduced MSCs; CID 50 nM, 24 hrs, listed as CID
  apoptosis index of iCasp9-negative cells: 20±7% and 19%
iCasp9-transduced MSCs; CID 50 nM, within 24 hrs
  apoptotic death of iCasp9-positive cells: 93±1%
iCasp9-transduced MSCs; after exposure to CID
  apoptotic cells among magnetically immunoselected iCasp9-CD19-positive cells: More than 95%
[7]; listed as CID
  reduction in the number of human CD3+/GFP+ T cells in tumors: > 99%
[7]; listed as dimerizer
  reduction in the number of human CD3+/GFP+ T cells in tumors: more than 99%
[8]; [9]
  Killing efficiency after correction for baseline viability: about 92.9%±3.8%
  viable cells after AP20187: about 5.5%±2.5%
[8]; OKT3/aCD28-reactivated cells, day 24 or 25
  killing efficiency: ~84.6%±8.0%
[8]; allostimulated cells, 10 nM AP20187
  effect on virus-specific T cells (pentamer analysis): spares (and thereby enriches) viral reactive subpopulations
[8]; day 5 post transduction
  killing efficiency: 93.1±3.5%
[8]; day 24 post transduction, 10 nM AP20187
  residual viability: 19.6±5.6%
[8]; day 24 post transduction, non-reactivated
  killing efficiency: 63.1±6.2% and ~63.1%±6.2%
[8]; large scale (n=3)
  percentage killing: about 95.4%
[8]; large scale CD19 selection (n=3)
  mean viability with AP20187: about 3.9%
[8]; non-transduced cells (n=6)
  viability of non-transduced cells with AP20187: about 86%±9%
[8]; reactivated, CD25 negative fraction
  Killing: 78.6±9.1%
[8]; small scale (n=5)
  percentage killing: about 91.4%
[8]; small scale CD19 selection (n=5)
  mean viability with AP20187: about 6.6%
[8]; summary statement, listed as small-molecule dimerizer
  apoptosis / elimination of iCasp9-modified T cells after dimerizer: > 90%
